# Legend:
# [1] = target: T1, γ-secretase (Homo sapiens, UniProt P49768); settings: recombinant APP C100 substrate; Takahashi et al. 2003; cited from earlier work
# [2] = tested on: aged rats; settings: total dose infused i.v.=1 ug, Fischer et al. 1987; cited from earlier work
# [3] = tested on: EAE animals; test: LY411575 injected into EAE animals; assay type: in vivo
# Experimental: When LY411575 was injected into EAE animals, the severity of EAE was decreased.
# [4] = tested on: T cells; settings: Minter et al. 2005; cited from earlier work
# [5] = tested on: EAE; settings: injected prior to disease onset; Minter et al. 2005; cited from earlier work
# [6] = tested on: CD4+ T cells; test: cell-culture assay of T cell proliferation and Th1 differentiation; assay type: cell-based
# [7] = tested on: MS patients; settings: some, but not all, onsets approximately six months following the onset of therapy; cited from earlier work
# [8] = tested on: EAE; settings: Sanna et al. 2006; cited from earlier work
# [9] = target: T1, γ-secretase; settings: displacement assay; cited from earlier work
molecule,measurement,setting,value
CSc1ccc(/C=C2/C(C)=C(CC(=O)O)c3cc(F)ccc32)cc1 [sulindac sulfide],γ-secretase activity,[1],preferentially inhibits
NGF: nerve growth factor,cholinergic neuron atrophy and spatial memory impairment,[2],ameliorate
C[C@H](NC(=O)[C@@H](O)c1cc(F)cc(F)c1)C(=O)N[C@@H]1C(=O)N(C)c2ccccc2-c2ccccc21 [LY411575],severity of EAE,[3],decreased
same,Th1 differentiation in vitro,[4],decreased
same,effect on T cell proliferation,[4],no effect
same,severity of EAE,[5],lessened
same,amount of T cell differentiation of the inflammatory Th1 subset of CD4+ T cells,[6],decreased
same,effect on T cell proliferation,[6],no observed effect
glatiramer acetate [GA],clinical relapses,[7],modest reduction
same,progression of EAE,[8],block progression
C[C@H](NC(=O)Cc1cc(F)cc(F)c1)C(=O)N[C@H](C(=O)OC(C)(C)C)c1ccccc1 [DAPT],competition for the γ-secretase active site,[9],compete moderately
